Data set [1] in a line: Stability of urea on exposure to higher temperature. In kind it is physicochemical. As to conditions: 180° C. for 8 h. As for the experimental part: In order to assess the stability of synthetic acids containing urea, the stability of urea was tested by only considering its exposure to higher temperature. Urea 50% diluted with 50% seawater @ 180° C. for 8 h. […] This confirms that synthetic acids containing urea have decreasing stability when heated above 90° C. and are less desirable to use than compositions according to the present invention which have stability when exposed to temperatures above 200° C.

The conditions of data set [2]: in the presence of iron (III).

Where a name gives a salt, the structure may show the parent alone.

For “Urea [Urea 50% diluted with 50% seawater]”, in data set [1], the “observation after exposure to high temperature” value is on record as “strong ammonia smell”, the “pH after exposure to high temperature” value is listed as 9.44 and the “pH before exposure to high temperature” value stood at 7.61.
Regarding `Cl` [HCl, hydrochloric acid], the “pH of full precipitation” value in data set [2] is listed as “approximately 2.5”.

The values are drawn from patent publication US11795381B2, “Using synthetic acid compositions as alternatives to conventional acids in the oil and gas industry” (priority 2016, dated 2023).
